Test results taken from ChEMBL document CHEMBL1909046, “DrugMatrix in vitro pharmacology data”.

Assays:
[1] = target: T1, Alpha-1A adrenergic receptor (Rattus norvegicus, UniProt P43140); test: DRUGMATRIX: Alpha-1A adrenergic receptor radioligand binding (ligand: prazosin); format: cell membranes, Wistar, Submaxillary gland, Membrane; conditions: Not Active = under 50% inhibition at 10 µM
T1 sequence (P43140 whole entry): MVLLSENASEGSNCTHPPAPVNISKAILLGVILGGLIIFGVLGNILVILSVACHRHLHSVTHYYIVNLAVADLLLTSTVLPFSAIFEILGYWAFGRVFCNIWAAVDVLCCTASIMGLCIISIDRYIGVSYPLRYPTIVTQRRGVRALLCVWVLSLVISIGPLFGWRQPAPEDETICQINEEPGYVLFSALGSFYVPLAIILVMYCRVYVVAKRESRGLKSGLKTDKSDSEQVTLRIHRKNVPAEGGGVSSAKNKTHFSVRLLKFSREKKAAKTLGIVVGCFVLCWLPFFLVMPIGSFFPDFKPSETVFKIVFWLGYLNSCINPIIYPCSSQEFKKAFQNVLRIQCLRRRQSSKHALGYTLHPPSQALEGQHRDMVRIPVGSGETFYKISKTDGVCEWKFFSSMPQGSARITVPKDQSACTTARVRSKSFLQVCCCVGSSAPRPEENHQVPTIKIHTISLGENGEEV

[2] = DRUGMATRIX: ATPase, Na+/K+ enzyme inhibition (substrate: ATP); format: tissue-based, Sus scrofa, Heart; conditions: Not Active = under 50% inhibition at 10 µM
Calcitonin receptor = target: T2, Calcitonin receptor (Homo sapiens, UniProt P30988); format: cell membranes, Membrane; conditions: t47d; further: in other assays of this panel Not Active means under 50% inhibition at 10 µM
T2 sequence (P30988 whole entry): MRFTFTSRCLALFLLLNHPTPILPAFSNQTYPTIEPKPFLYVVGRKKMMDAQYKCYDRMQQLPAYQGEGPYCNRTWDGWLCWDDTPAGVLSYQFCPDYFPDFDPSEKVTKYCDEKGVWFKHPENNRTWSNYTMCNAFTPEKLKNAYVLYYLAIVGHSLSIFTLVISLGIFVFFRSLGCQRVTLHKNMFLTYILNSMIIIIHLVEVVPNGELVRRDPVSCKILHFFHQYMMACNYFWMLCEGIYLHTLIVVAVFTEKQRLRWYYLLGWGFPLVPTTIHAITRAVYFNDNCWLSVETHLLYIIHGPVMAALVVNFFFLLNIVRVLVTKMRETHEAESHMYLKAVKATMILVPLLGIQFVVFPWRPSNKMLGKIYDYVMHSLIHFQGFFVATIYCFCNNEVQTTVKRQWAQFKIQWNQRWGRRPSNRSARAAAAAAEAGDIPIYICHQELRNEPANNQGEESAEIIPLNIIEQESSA

[3] = target: T3, 5-hydroxytryptamine receptor 2C (Homo sapiens, UniProt P28335); test: DRUGMATRIX: Serotonin (5-Hydroxytryptamine) 5-HT2C radioligand binding (ligand: [3H] Mesulergine); format: cell membranes, CHO-K1, Membrane; conditions: cho-k1; Not Active = under 50% inhibition at 10 µM
T3 sequence (P28335 whole entry): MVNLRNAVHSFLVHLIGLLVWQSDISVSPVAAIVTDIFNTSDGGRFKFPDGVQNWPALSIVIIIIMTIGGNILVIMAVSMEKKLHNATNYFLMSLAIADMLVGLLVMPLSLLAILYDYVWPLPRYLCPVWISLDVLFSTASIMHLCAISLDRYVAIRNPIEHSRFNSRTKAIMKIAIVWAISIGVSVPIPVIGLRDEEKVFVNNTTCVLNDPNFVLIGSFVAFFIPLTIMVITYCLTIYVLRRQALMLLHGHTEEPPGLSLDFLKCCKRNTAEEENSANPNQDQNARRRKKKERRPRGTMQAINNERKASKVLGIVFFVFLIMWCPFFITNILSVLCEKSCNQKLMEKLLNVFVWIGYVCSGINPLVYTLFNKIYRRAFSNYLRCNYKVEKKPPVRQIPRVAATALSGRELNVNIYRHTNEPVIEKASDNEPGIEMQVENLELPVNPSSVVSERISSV

[4] = target: Prostaglandin G/H synthase 1 (Homo sapiens, UniProt P23219); test: biochemical; format: tissue-based, Platelet; conditions: platelet;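 further: inhibition of COX-1 enzyme activity, with arachidonic acid supplied as substrate; in other assays of this panel Not Active means under 50% inhibition at 10 µM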
Endothelin-1 receptor = target: T4, Endothelin-1 receptor (Homo sapiens, UniProt P25101); format: cell membranes, Membrane; conditions: cho-k1; further: in other assays of this panel Not Active means under 50% inhibition at 10 µM
T4 sequence (P25101 whole entry): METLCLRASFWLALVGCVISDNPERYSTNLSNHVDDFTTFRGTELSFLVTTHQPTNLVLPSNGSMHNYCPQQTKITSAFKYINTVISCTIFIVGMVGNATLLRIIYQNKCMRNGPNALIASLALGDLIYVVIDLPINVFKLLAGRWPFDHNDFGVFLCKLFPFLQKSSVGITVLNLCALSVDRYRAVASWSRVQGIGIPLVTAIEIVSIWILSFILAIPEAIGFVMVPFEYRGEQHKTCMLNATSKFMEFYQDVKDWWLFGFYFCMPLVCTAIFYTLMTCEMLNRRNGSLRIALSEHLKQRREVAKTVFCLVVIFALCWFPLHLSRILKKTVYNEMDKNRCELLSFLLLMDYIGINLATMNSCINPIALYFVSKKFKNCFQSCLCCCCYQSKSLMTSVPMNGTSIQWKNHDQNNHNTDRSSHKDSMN

[5] = DRUGMATRIX: Glutamate, AMPA radioligand binding (ligand: [3H] AMPA); format: cell membranes, Rattus norvegicus, Wistar, Cerebral cortex, Membrane; conditions: Not Active = under 50% inhibition at 10 µM
[6] = DRUGMATRIX: Interleukin IL-1 radioligand binding (ligand: [125I] interleukin 1beta); format: cell membranes, Membrane; conditions: nih3t3; Not Active = under 50% inhibition at 10 µM
[7] = target: T5, Amine oxidase [flavin-containing] A (Homo sapiens, UniProt P21397); test: DRUGMATRIX: Monoamine Oxidase MAO-A enzyme inhibition (substrate: Kynuramine); design: species or system BTI-TN-5B1-4; conditions: bti-tn-5b1-4; Not Active = under 50% inhibition at 10 µM
T5 sequence (P21397 whole entry): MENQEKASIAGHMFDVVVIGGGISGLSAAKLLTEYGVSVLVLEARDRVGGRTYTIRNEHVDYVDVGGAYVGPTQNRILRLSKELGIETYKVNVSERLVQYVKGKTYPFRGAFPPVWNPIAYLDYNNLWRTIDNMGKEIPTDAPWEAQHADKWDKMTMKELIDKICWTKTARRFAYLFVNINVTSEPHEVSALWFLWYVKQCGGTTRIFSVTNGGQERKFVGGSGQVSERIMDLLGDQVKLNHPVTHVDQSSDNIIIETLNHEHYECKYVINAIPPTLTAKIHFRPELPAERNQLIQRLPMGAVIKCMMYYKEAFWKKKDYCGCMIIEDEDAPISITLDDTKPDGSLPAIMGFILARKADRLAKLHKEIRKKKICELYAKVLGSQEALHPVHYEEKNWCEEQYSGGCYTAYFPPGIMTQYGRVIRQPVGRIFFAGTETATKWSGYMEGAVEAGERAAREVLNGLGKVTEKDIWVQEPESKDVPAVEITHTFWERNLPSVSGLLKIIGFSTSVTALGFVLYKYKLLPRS

[8] = target: Mitogen-activated protein kinase 14 (Homo sapiens, UniProt Q16539); design: species or system Escherichia coli;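 further: inhibition of p38alpha enzyme activity in a biochemical kinase assay, with myelin basic protein serving as substrate; in other assays of this panel Not Active means under 50% inhibition at 10 µM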
Sequence of Mitogen-activated protein kinase 14 (Q16539 whole entry): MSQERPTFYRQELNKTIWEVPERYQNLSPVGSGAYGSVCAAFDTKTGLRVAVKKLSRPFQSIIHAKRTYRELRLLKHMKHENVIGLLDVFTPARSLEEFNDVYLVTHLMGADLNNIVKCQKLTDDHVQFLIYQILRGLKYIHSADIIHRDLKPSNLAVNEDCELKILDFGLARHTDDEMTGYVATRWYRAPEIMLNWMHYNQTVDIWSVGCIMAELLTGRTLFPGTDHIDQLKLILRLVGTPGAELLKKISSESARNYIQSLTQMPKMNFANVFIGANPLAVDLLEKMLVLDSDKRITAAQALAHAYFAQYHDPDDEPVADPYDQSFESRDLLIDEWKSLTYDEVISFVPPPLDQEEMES

Sequence of Prostaglandin G/H synthase 1 (P23219 whole entry): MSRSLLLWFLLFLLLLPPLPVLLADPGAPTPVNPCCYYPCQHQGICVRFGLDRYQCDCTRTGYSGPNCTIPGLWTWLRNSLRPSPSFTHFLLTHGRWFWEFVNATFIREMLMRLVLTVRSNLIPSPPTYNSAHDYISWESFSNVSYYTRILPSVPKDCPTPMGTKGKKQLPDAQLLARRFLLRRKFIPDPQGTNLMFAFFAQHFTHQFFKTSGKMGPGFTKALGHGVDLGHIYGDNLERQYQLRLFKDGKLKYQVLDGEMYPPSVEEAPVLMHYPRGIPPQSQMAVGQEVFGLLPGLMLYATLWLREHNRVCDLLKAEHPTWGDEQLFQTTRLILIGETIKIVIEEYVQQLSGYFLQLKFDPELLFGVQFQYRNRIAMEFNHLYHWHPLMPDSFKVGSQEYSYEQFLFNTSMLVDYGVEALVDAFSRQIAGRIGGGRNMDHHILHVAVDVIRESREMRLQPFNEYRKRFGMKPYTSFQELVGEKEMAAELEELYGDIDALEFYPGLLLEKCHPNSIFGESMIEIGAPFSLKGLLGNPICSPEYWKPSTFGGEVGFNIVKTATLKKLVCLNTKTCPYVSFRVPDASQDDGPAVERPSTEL

CC[C@]1(O)C[C@@H]2CN(CCc3c([nH]c4ccccc34)[C@@](C(=O)OC)(c3cc4c(cc3OC)N(C)[C@H]3[C@@](O)(C(=O)OC)[C@H](OC(C)=O)[C@]5(CC)C=CCN6CC[C@]43[C@@H]65)C2)C1 [VINBLASTINE]
Not Active: IC50 [1] | IC50 [2] | Ki [2] | IC50 (Calcitonin receptor) | IC50 [3] | IC50 [4] | IC50 (Endothelin-1 receptor) | IC50 [5] | Ki [5] | IC50 [6] | Ki [6] | IC50 [7] | IC50 [8]

CC(=O)CC(c1ccccc1)c1c(O)c2ccccc2oc1=O (configuration not stated) [WARFARIN]
Not Active: IC50 [1] | IC50 [2] | Ki [2] | IC50 (Calcitonin receptor) | IC50 [3] | IC50 [4] | IC50 (Endothelin-1 receptor) | IC50 [5] | Ki [5] | IC50 [6] | Ki [6] | IC50 [7] | IC50 [8]

C[C@@H](N)[C@H]1CC[C@H](C(=O)Nc2ccncc2)CC1 [Y-27632]
Not Active: IC50 [1] | IC50 [2] | Ki [2] | IC50 (Calcitonin receptor) | IC50 [3] | IC50 [4] | IC50 (Endothelin-1 receptor) | IC50 [5] | Ki [5] | IC50 [6] | Ki [6] | IC50 [7] | IC50 [8]

[Cl-].[Cl-].[Zn+2] [ZINC CHLORIDE]
Not Active: IC50 [1] | IC50 [2] | Ki [2] | IC50 (Calcitonin receptor) | IC50 [3] | IC50 [4] | IC50 (Endothelin-1 receptor) | IC50 [5] | Ki [5] | IC50 [6] | Ki [6] | IC50 [7] | IC50 [8]
